Key:
[1] = Fluorescence quantum yield determination; assay type: physicochemical; settings: in DMSO; for φF fluorescence quantum yield: calculated using riboflavin as the reference
Protocol: 4 Fluorescence Quantum Yield Calculations
The fluorescence quantum yields (ФF) for F1-4 were determined by preparing a series of dilutions in DMSO ranging
in absorbance values from 0.02 to 0.10 and excited at their respective absorbance maxima (see Table S1).3 The
emission peak was then integrated and plotted against the absorbance value (see Figure S1). Riboflavin (from
according to equation (1):
Φ!;#$%&’( = Φ!;)(* $ !"#$%&% $ !"#$%&) % (1)
Where Slope = gradient from the plot of integrated emission peak vs. absorption value and η = refractive index
Flavin ε (M-1cm-1) λex (nm) λem (nm)
Figure S2: Plot of integrated emission peak against absorbance value of flavins F1-4 and reference compound

[2] = test system: murine hepatitis virus A59 strain (MHV-A59); test: Photodynamic inactivation of MHV-A59 (TCID50 assay in 17Cl-1 cells); assay type: cell-based
Protocol: The efficacy of the flavins were enumerated utilizing modified methods from ISO 18,184 and Leibowitz et al.[56] […] 100 µM working stock solutions were then created by diluting each DMSO solution into PBS. To control for the effect of DMSO on MHV-A59, DMSO was diluted into PBS at the same concentration. A white light apparatus was set up to cover a 4 × 5 (row x column) area of a 96-well plate with the same level of light intensity (1 × 10^5 lx). The stock solutions were then diluted in replicates of four to a total of 180 µl in PBS at 1, 5, and 10 µM concentrations for each sample. Virus stocks of MHV-A59 were thawed on ice prior to use. 20 µl of MHV-A59 stock (1.4 × 10^9 PFU/ml) was then mixed into each well, and the 4 × 5 well matrix was treated with the light or incubated in the dark at room temperature for a specified time (5, 10, or 15 min).
After treatment, the samples were mixed into 320 µl of Gibco Difco™ Beef Extract (1.5% w/v beef extract in ddH2O; Life Technologies) and rolled for 15 min to chelate any free ions in the solution. The samples then were serially diluted (10^0–10^–7) in infectivity media (Dulbecco’s modified Eagle’s medium low glucose 1 g/L (DMEM, Life Technologies) supplemented with 2.5% fetal bovine serum (Merck), 3% tryptose phosphate broth (Merck), 1 × non-essential amino acids (Gibco), 1 × antibiotic–antimycotic (Thermo Fisher Scientific) and 1 × L-Glutamine (Gibco]) and added in triplicate to 17Cl-1 cell plates. For each sample or control there were 4 replicate treatments (in light or dark); each treatment replicate was plated in triplicate. Infected 17Cl-1 plates were incubated at 37 °C in a 5% CO2 atmosphere for 24 h. Plates were scored for cytopathic effect (CPE) by microscopy and viral titres were determined by the Reed and Muench 50% tissue culture infectious dose (TCID50) end point method. Outliers were removed from the four replicates using an outlier test. The full protocol was repeated in triplicate on different days to account for any variability in the assay.

pDNA (pUC18) = test: pDNA photocleavage, agarose gel electrophoresis; assay type: biochemical; settings: 10 µM flavin, 15 min white LED, PBS 0.1% DMSO
Protocol: A 20 µL aliquot was taken after 15 min of white LED irradiation (1 × 10^5 lx). Prior to loading, 2 µL of 6X Orange-G loading dye in glycerol were added to the aliquot and mixed vigorously. The gel was electrophoresed at 80 V for 35 min with 1% agarose gels in 1X Tris–acetate-EDTA (TAE) buffer. Gels were then imaged in a Syngene G:BOX Gel Documentation System and band % quantification was performed using ImageJ Gel Analyzer.

[3] = 5 µM flavin, 10 min irradiation
[4] = 10 µM flavin, 10 min irradiation
[5] = 1 µM flavin, 10 min irradiation (21.0 J/cm^2)

**Q.** Which “ФF fluorescence quantum yield” value [1] does the source give for `CCCCCCCCn1c(=O)nc2n(CCN)c3cc(C)c(C)cc3nc-2c1=O` [Flavin F1] here?
**A.** 13%

**Q.** And the “φF fluorescence quantum yield” value [1]?
**A.** 0.129 ± 0.012

**Q.** And the “MHV-A59 log10 reduction in viral titre” value [2, 3]?
**A.** 1.7 log10

**Q.** What about the “MHV-A59 log10 reduction in viral titre” value ([2]; 10 µM flavin, 5 min irradiation (10.5 J/cm^2)) of the same molecule?
**A.** 1.2 log10

**Q.** And the “MHV-A59 log10 reduction in viral titre” value [2, 4]?
**A.** 2.1 log10

**Q.** And the “MHV-A59 log10 reduction in viral titre” value ([2]; 10 µM flavin, 15 min irradiation (31.5 J/cm^2))?
**A.** 2.2 log10

**Q.** Which “ФF fluorescence quantum yield” value [1] does the source give for `CCCCCCCCn1c(=O)nc2n(CCNC(=N)N)c3cc(C)c(C)cc3nc-2c1=O` [Flavin F2] here?
**A.** 14%

**Q.** What about the “φF fluorescence quantum yield” value [1] of the same molecule?
**A.** 0.141 ± 0.010

**Q.** What about the “% NC (nicked coiled pDNA after photocleavage)” value (pDNA (pUC18)) of the same molecule?
**A.** 39%

**Q.** What about the “MHV-A59 log10 reduction in viral titre” value [2, 5] of the same molecule?
**A.** 2.1 log10

**Q.** What about the “MHV-A59 log10 reduction in viral titre” value [2, 3] of the same molecule?
**A.** 3.9 log10

**Q.** And the “MHV-A59 viral load reduction” value [2, 3]?
**A.** > 99.9%

**Q.** And the “MHV-A59 log10 reduction in viral titre” value [2, 4]?
**A.** 3.8 log10

**Q.** For `CCCCCCCCn1c(=O)nc2n(CCN)c3cc(Br)c(Br)cc3nc-2c1=O` [Flavin F3], which “ФF fluorescence quantum yield” value [1] is on record?
**A.** < 2%

**Q.** What about the “φF fluorescence quantum yield” value [1] of the same molecule?
**A.** 0.009 ± 0.013

**Q.** What about the “MHV-A59 log10 reduction in viral titre” value [2, 5] of the same molecule?
**A.** 2.1 log10

**Q.** What about the “MHV-A59 log10 reduction in viral titre” value [2, 3] of the same molecule?
**A.** 4.1 log10

**Q.** And the “MHV-A59 viral load reduction” value [2, 3]?
**A.** > 99.99%

**Q.** And the “MHV-A59 log10 reduction in viral titre” value [2, 4]?
**A.** 4.8 log10

**Q.** Which “ФF fluorescence quantum yield” value [1] does the source give for `CCCCCCCCn1c(=O)nc2n(CCNC(=N)N)c3cc(Br)c(Br)cc3nc-2c1=O` [Flavin F4] here?
**A.** < 2%

**Q.** And the “φF fluorescence quantum yield” value [1]?
**A.** 0.011 ± 0.010

**Q.** What about the “% NC (nicked coiled pDNA after photocleavage)” value (pDNA (pUC18)) of the same molecule?
**A.** 21%

**Q.** And the “MHV-A59 log10 reduction in viral titre” value [2, 5]?
**A.** 3.4 log10

**Q.** And the “MHV-A59 viral load reduction” value [2, 3]?
**A.** > 99.99%

**Q.** What about the “viral inactivation, log10 reduction” value ([2]; 15 min irradiation at 1 μM) of the same molecule?
**A.** > 3 log10

From article PMC9022420 (Scientific Reports, 2022)
